# Assays:
# HBV [1] = assay: Anti-HBV activity, HepG2.117 inducibly HBV producing cell line (Tet-off), intracellular HBV DNA by realtime PCR; assay type: cell-based, Hepatitis B virus (HBV); settings: HepG2.117 cells, 3 days of treatment
# HBV [2] = assay: Anti-HBV activity, HepG2.2.15 stable transfected cell line, HBV DNA from secreted virions by realtime PCR; assay type: cell-based, Hepatitis B virus (HBV); settings: HepG2.2.15 cells, 6 days of treatment
# [3] = Cytotoxicity in HepG2 cells, Resazurin assay; settings: human
# [4] = Hepatitis B virus, HepG2.2.15, 144 h
# [5] = Hepatitis B virus, HepG2.117, 72 h
Structure (SMILES),EC50 (HBV [1]) [nM],EC50 (HBV [2]; [4]) [nM],CC50 at 4 days [3] [nM],EC50 (HBV [2]) [nM],EC50 (HBV [1]; [5]) [nM]
"Cc1cc(NC(=O)C2(C)CCN(S(=O)(=O)CC(C)C)C2)ccc1F (racemic) [Compound 29, N-(4-fluoro-3-methyl-phenyl)-1-isobutylsulfonyl-3-methyl-pyrrolidine-3-carboxamide]",18900,13700,> 25000,,
"Cc1cc(NC(=O)C2(F)CCN(S(=O)(=O)NC(C)C)C2)ccc1F (racemic) [Compound 35a, 3-fluoro-N-(4-fluoro-3-methyl-phenyl)-1-(isopropylsulfamoyl)pyrrolidine-3-carboxamide]",228,,> 25000,563,
"Cc1cc(NC(=O)[C@@H]2CN(S(=O)(=O)NC(C)C)C[C@H]2C)ccc1F (relative stereo) [Compound 41, trans-N-(4-fluoro-3-methyl-phenyl)-1-(isopropylsulfamoyl)-4-methyl-pyrrolidine-3-carboxamide]",,530,> 25000,,420
"Cc1cc(NC(=O)C2CN(S(=O)(=O)NC(C)C)C3CC23)ccc1F (single isomer, unassigned) [Compound 36a, N-(4-fluoro-3-methyl-phenyl)-2-(isopropylsulfamoyl)-2-azabicyclo[3.1.0]hexane-4-carboxamide]",2650,,> 25000,2390,
"Cc1cc(NC(=O)C2(F)CCN(S(=O)(=O)N[C@H]3CCOC3)C2)ccc1F (single isomer, unassigned) [Compound 42a]",> 5000,> 5000,> 25000,,
"Cc1cc(NC(=O)C2CCN(S(=O)(=O)CC(C)C)C2)ccc1F (centres unmarked) [Compound 1, N-(4-fluoro-3-methyl-phenyl)-1-isobutylsulfonyl-pyrrolidine-3-carboxamide]",,940,> 25000,,720
"Cc1cc(NC(=O)[C@H]2CCN(S(=O)(=O)CC(C)C)C2)ccc1F [Compound 2, (3S)—N-(4-fluoro-3-methyl-phenyl)-1-isobutylsulfonyl-pyrrolidine-3-carboxamide]",,1320,> 25000,,310
"Cc1cc(NC(=O)[C@@H]2CCN(S(=O)(=O)CC(C)C)C2)ccc1F [Compound 3, (3R)—N-(4-fluoro-3-methyl-phenyl)-1-isobutylsulfonyl-pyrrolidine-3-carboxamide]",,> 25000,> 25000,,1490
"CCCS(=O)(=O)N1CC[C@H](C(=O)Nc2ccc(F)c(C)c2)C1 [Compound 6, (3S)—N-(4-fluoro-3-methyl-phenyl)-1-propylsulfonyl-pyrrolidine-3-carboxamide]",,1900,> 25000,,620
"Cc1cc(NC(=O)[C@H]2CCN(S(=O)(=O)CC3CC3)C2)ccc1F [Compound 8, (3S)-1-(cyclopropylmethylsulfonyl)-N-(4-fluoro-3-methyl-phenyl)pyrrolidine-3-carboxamide]",,580,> 25000,,330
"Cc1cc(NC(=O)[C@H]2CCN(S(=O)(=O)C3CCOCC3)C2)ccc1F [Compound 9, (3S)—N-(4-fluoro-3-methyl-phenyl)-1-tetrahydropyran-4-ylsulfonyl-pyrrolidine-3-carboxamide]",,1400,> 25000,,950
"Cc1cc(NC(=O)[C@H]2CCN(S(=O)(=O)C3CCCC3)C2)ccc1F [Compound 10, (3S)-1-cyclopentylsulfonyl-N-(4-fluoro-3-methyl-phenyl)pyrrolidine-3-carboxamide]",,4300,22900,,760
"CCC1CC1S(=O)(=O)N1CC[C@H](C(=O)Nc2ccc(F)c(C)c2)C1 (stereo partly drawn) [Compound 24, (3S)-1-(2-ethylcyclopropyl)sulfonyl-N-(4-fluoro-3-methyl-phenyl)pyrrolidine-3-carboxamide]",,500,> 25000,,330
"CCC(C)S(=O)(=O)N1CC[C@H](C(=O)Nc2ccc(F)c(C)c2)C1 (stereo partly drawn) [Compound 25, (3S)—N-(4-fluoro-3-methyl-phenyl)-1-sec-butylsulfonyl-pyrrolidine-3-carboxamide]",,5500,> 25000,,430
"Cc1cc(NC(=O)[C@H]2CCN(C(=O)OCC(C)C)C2)ccc1F [Compound 26, isobutyl (3S)-3-[(4-fluoro-3-methyl-phenyl)carbamoyl]pyrrolidine-1-carboxylate]",,4400,> 25000,,410
"Cc1cc(NC(=O)[C@@]23C[C@@H]2CN(S(=O)(=O)CC(C)C)C3)ccc1F [Compound 27, (1S,5S)—N-(4-fluoro-3-methyl-phenyl)-3-isobutylsulfonyl-3-azabicyclo[3.1.0]hexane-1-carboxamide]",,2800,> 25000,,2000
"Cc1cc(NC(=O)C2CN(S(=O)(=O)CC(C)C)c3ccccc32)ccc1F (centres unmarked) [Compound 28, N-(4-fluoro-3-methyl-phenyl)-1-isobutylsulfonyl-indoline-3-carboxamide]",,2000,> 25000,,3900
"Cc1cc(NC(=O)[C@H]2CCN(S(=O)(=O)NCC(C)C)C2)ccc1F [Compound 31, (3S)—N-(4-fluoro-3-methyl-phenyl)-1-(isobutylsulfamoyl)pyrrolidine-3-carboxamide]",,450,> 25000,,470
"Cc1cc(NC(=O)[C@H]2CCN(S(=O)(=O)NC(C)C)C2)ccc1F [Compound 32, (3S)—N-(4-fluoro-3-methyl-phenyl)-1-(isopropylsulfamoyl)pyrrolidine-3-carboxamide]",,180,> 25000,,120
"Cc1cc(NC(=O)[C@H]2CCN(S(=O)(=O)N[C@H]3CCOC3)C2)ccc1F [Compound 33, (3S)—N-(4-fluoro-3-methyl-phenyl)-1-[[(3S)-tetrahydrofuran-3-yl]sulfamoyl]pyrrolidine-3-carboxamide]",,150,> 25000,,75
"Cc1cc(NC(=O)[C@H]2CCN(S(=O)(=O)NC3(C)COC3)C2)ccc1F [Compound 34, (3S)—N-(4-fluoro-3-methyl-phenyl)-1-[(3-methyloxetan-3-yl)sulfamoyl]pyrrolidine-3-carboxamide]",,110,> 25000,,110
"Cc1cc(NC(=O)[C@H]2CCN(S(=O)(=O)N[C@@H]3c4ccccc4C[C@H]3O)C2)ccc1F [Compound 37, (3S)—N-(4-fluoro-3-methyl-phenyl)-1-[[(1R,2R)-2-hydroxyindan-1-yl]sulfamoyl]pyrrolidine-3-carboxamide]",,270,> 25000,,530
"Cc1cc(NC(=O)[C@H]2CCN(S(=O)(=O)NC(C)CNC(=O)OC(C)(C)C)C2)ccc1F (stereo partly drawn) [Compound 38, tert-butyl N-[2-[[(3S)-3-[(4-fluoro-3-methyl-phenyl)carbamoyl]pyrrolidin-1-yl]sulfonylamino]propyl]carbamate]",,3650,> 25000,,2070
"Cc1cc(NC(=O)[C@H]2CCN(S(=O)(=O)N[C@H](C)CO)C2)ccc1F [Compound 39, (3S)—N-(4-fluoro-3-methyl-phenyl)-1-[[(1R)-2-hydroxy-1-methyl-ethyl]sulfamoyl]pyrrolidine-3-carboxamide]",,,> 25000,,150

# — patent publication US9895349B2, “N-phenyl-carboxamide derivatives and the use thereof as medicaments for the treatment of hepatitis B” (priority 2013, dated 2018)
